Laboratory results reported in patent US9113629B2, “4-amino-6-(4-substituted-phenyl)-picolinates and 6-amino-2-(4-substituted-phenyl)-pyrimidine-4-carboxylates and their use as herbicides” (DOW AGROSCIENCES LLC, priority 2013, dated 2015).
Like-named read-outs stand apart in the source and are kept apart here.

Key:
[1] = system: Key Broadleaf Weed and Crop Species; test: Post-emergent Test II herbicidal activity (Table 5); assay type: in vivo; details: post-emergence, 336 h, 14 days after application; for pest or weed control at 70 g/ha: application rate 70 g ai/ha; for pest or weed control at 140 g/ha: application rate 140 g ai/ha
In short: (§1)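 Test species were raised 7–21 d under greenhouse conditions until reaching the first or second true leaf, sprayed with formulated compound at 187 L/ha, and kept subirrigated to avoid wash-off. Fourteen days later, damage was rated visually on a 0–100% scale against untreated plants.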

[2] = system: Key Grass and Sedge Weeds as well as Grass Crops; test: Post-emergent Test II herbicidal activity (Table 6); assay type: in vivo; details: post-emergence, 336 h; for pest or weed control at 70 g/ha: 70 g ai/ha; for pest or weed control at 140 g/ha: 140 g ai/ha
In short: as §1

[3] = ABUTH: velvetleaf (Abutilon theophrasti), read-out: Visual Growth Reduction (%) 14 Days After Application, ABUTH
[4] = AMARE: redroot pigweed (Amaranthus retroflexus), read-out: Visual Growth Reduction (%) 14 Days After Application, AMARE
[5] = BRSNN: oilseed-rape, canola (Brassica napus), read-out: Visual Growth Reduction (%) 14 Days After Application, BRSNN
[6] = CHEAL: lambsquarters (Chenopodium album), read-out: Visual Growth Reduction (%) 14 Days After Application, CHEAL
[7] = EPHHL: wild poinsettia (Euphorbia heterophylla), read-out: Visual Growth Reduction (%) 14 Days After Application, EPHHL
[8] = HELAN: sunflower (Helianthus annuus), read-out: Visual Growth Reduction (%) 14 Days After Application, HELAN
[9] = VIOTR: wild pansy (Viola tricolor), read-out: Visual Growth Reduction (%) 14 Days After Application, VIOTR
[10] = CYPES: yellow nutsedge (Cyperus esculentus), read-out: Visual Growth Reduction (%) 14 Days After Application, CYPES
[11] = DIGSA: crabgrass (Digitaria sanguinalis), read-out: Visual Growth Reduction (%) 14 Days After Application, DIGSA
[12] = ECHCG: barnyardgrass (Echinochloa crus-galli), read-out: Visual Growth Reduction (%) 14 Days After Application, ECHCG
[13] = ORYSA: rice (Oryza sativa), crop, read-out: Visual Growth Reduction (%) 14 Days After Application, ORYSA
[14] = SETFA: giant foxtail (Setaria faberi), read-out: Visual Growth Reduction (%) 14 Days After Application, SETFA
[15] = SORVU: grain sorghum (Sorghum vulgare), read-out: Visual Growth Reduction (%) 14 Days After Application, SORVU
[16] = TRZSS (wheat, Triticum aestivum), crop, read-out: Visual Growth Reduction (%) 14 Days After Application, TRZSS
[17] = ZEAMX: maize, corn (Zea mays), crop, read-out: Visual Growth Reduction (%) 14 Days After Application, ZEAMX

Nc1c(F)c(-c2ccc(I)cc2F)nc(C(=O)O)c1Cl [Compound 169]
pest or weed control at 70 g/ha [1, 3]: 85 to 94% | pest or weed control at 140 g/ha [1, 3]: 85 to 94% | pest or weed control at 70 g/ha [1, 4]: 95 to 100% | pest or weed control at 140 g/ha [1, 4]: 95 to 100% | pest or weed control at 70 g/ha [1, 5]: 95 to 100% | pest or weed control at 140 g/ha [1, 5]: 95 to 100% | pest or weed control at 70 g/ha [1, 6]: 95 to 100% | pest or weed control at 140 g/ha [1, 6]: 95 to 100% | pest or weed control at 70 g/ha [1, 7]: 95 to 100% | pest or weed control at 140 g/ha [1, 7]: 95 to 100% | pest or weed control at 70 g/ha [1, 8]: 95 to 100% | pest or weed control at 140 g/ha [1, 8]: 95 to 100% | pest or weed control at 70 g/ha [1, 9]: 95 to 100% | pest or weed control at 140 g/ha [1, 9]: 95 to 100% | pest or weed control at 70 g/ha [2, 10]: 95 to 100% | pest or weed control at 140 g/ha [2, 10]: 95 to 100% | pest or weed control at 70 g/ha [2, 11]: 75 to 84% | pest or weed control at 140 g/ha [2, 11]: 85 to 94% | pest or weed control at 70 g/ha [2, 12]: 75 to 84% | pest or weed control at 140 g/ha [2, 12]: 75 to 84% | pest or weed control at 70 g/ha [2, 13]: 30 to 44% | pest or weed control at 140 g/ha [2, 13]: 30 to 44% | pest or weed control at 70 g/ha [2, 14]: 95 to 100% | pest or weed control at 140 g/ha [2, 14]: 95 to 100% | pest or weed control at 70 g/ha [2, 15]: 95 to 100% | pest or weed control at 140 g/ha [2, 15]: 95 to 100% | pest or weed control at 70 g/ha [2, 16]: 30 to 44% | pest or weed control at 140 g/ha [2, 16]: 45 to 59% | pest or weed control at 70 g/ha [2, 17]: 95 to 100% | pest or weed control at 140 g/ha [2, 17]: 95 to 100% | melting point: 152 to 155 °C
